Laboratory results published in ChEMBL document CHEMBL4665857, “Optimization of linear and cyclic peptide inhibitors of KEAP1-NRF2 protein-protein interaction” (Bioorg Med Chem, 2020).
Non-standard residues stand in square brackets, D forms with d. Residues, ends and D or L forms follow the SMILES beside them. Phe(4-CONH2) = NC(=O)c1ccc(C[C@H](N)C(=O)O)cc1; Pro(cis-4-F) = O=C(O)[C@@H]1C[C@H](F)CN1; hPhe = N[C@@H](CCc1ccccc1)C(=O)O; hSer = N[C@@H](CCO)C(=O)O

The compounds below were run against Kelch-like ECH-associated protein 1 (Homo sapiens, UniProt Q14145) (assay: Binding affinity to human KEAP1 Kelch domain (322 to 609 residues) incubated for 60 mins by TR-FRET assay).
Chain of Kelch-like ECH-associated protein 1 (Q14145 whole entry, the tested form may be a part): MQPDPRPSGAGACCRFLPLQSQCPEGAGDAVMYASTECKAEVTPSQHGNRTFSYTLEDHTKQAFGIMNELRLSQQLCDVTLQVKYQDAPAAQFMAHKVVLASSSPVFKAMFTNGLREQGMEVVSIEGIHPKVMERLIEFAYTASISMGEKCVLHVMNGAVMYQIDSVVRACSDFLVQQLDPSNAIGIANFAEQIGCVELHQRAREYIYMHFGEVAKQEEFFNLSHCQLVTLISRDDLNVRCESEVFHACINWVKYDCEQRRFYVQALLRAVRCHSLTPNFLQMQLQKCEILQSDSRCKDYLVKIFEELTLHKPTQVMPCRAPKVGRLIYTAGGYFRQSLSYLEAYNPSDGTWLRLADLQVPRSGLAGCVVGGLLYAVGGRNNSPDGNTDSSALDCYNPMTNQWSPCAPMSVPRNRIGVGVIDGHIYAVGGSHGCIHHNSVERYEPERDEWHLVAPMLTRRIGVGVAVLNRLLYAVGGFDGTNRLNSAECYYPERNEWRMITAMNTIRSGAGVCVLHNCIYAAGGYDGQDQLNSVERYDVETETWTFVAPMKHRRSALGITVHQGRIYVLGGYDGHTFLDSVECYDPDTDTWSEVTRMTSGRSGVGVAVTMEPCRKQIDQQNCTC

CC(=O)N[C@@H](CC(C)C)C(=O)N[C@@H](CC(=O)O)C(=O)N[C@@H](CCC(=O)O)C(=O)N[C@@H](CCC(=O)O)C(=O)N[C@H](C(=O)NCC(=O)N[C@@H](Cc1ccc(C(N)=O)cc1)C(=O)N[C@@H](Cc1ccccc1)C(=O)N[C@@H](CC(C)C)C(N)=O)[C@@H](C)O (Ac-LDEETG[Phe(4-CONH2)]FL-NH2) and Ac-LDEQTGEFL-NH2 cannot be ordered by IC50: > 64 µM for the first, > 64 µM for the second.

CC(=O)N[C@@H](CC(C)C)C(=O)N[C@@H](CC(=O)O)C(=O)N1C[C@@H](F)C[C@H]1C(=O)N[C@@H](CCC(=O)O)C(=O)N[C@@H](Cc1ccccc1)C(=O)NCC(=O)N[C@@H](CCC(=O)O)C(=O)N[C@@H](Cc1ccccc1)C(=O)N[C@@H](CC(C)C)C(N)=O (Ac-LD[Pro(cis-4-F)]EFGEFL-NH2) and CC(=O)N[C@@H](CC(C)C)C(=O)N[C@@H](CC(=O)O)C(=O)N[C@@H](CCC(=O)O)C(=O)N[C@@H](CCc1ccccc1)C(=O)N[C@H](C(=O)NCC(=O)N[C@@H](CCC(=O)O)C(=O)N[C@@H](Cc1ccccc1)C(=O)N[C@@H](CC(C)C)C(N)=O)[C@@H](C)O (Ac-LDE[hPhe]TGEFL-NH2) cannot be ordered by IC50: > 64 µM for the first, > 64 µM for the second.

CC(=O)N[C@@H](CC(C)C)C(=O)N[C@@H](CC(=O)O)C(=O)N[C@@H](CCC(=O)O)C(=O)N[C@@H](CCC(=O)O)C(=O)N[C@H](C(=O)NCC(=O)N[C@@H](CCO)C(=O)N[C@@H](Cc1ccccc1)C(=O)N[C@@H](CC(C)C)C(N)=O)[C@@H](C)O (Ac-LDEETG[hSer]FL-NH2) was tested, and the IC50 was > 50 µM.
